Measured values: paper PMC9186373, “Design, synthesis, and biological evaluation of novel carbazole derivatives as potent DNMT1 inhibitors with reasonable PK properties” (Journal of Enzyme Inhibition and Medicinal Chemistry, 2022)
Like-named read-outs stand apart in the source and are kept apart here.

Columns and labels:
[1] = tested on: human DNMT1; test: ELISA EpiQuik DNA methyltransferase (DNMT) activity/inhibitor assay; assay type: biochemical; settings: 200 nM purified DNMT1, EpiQuik kit; for Inh% at 50 μM: 50 μM compound; for Inh% at 100 μM: 100 μM compound
Method in brief: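 Purified human DNMT1 (200 nM) was incubated 2 h at 37 °C with SAM and compound at 50 µM and 100 µM. Methylation was detected by antibody-based ELISA read at 450 nm.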

[2] = tested on: EZH2; test: Methylation inhibition assay (AlphaLisa), EZH2; assay type: biochemical; settings: 50 µM; for inhibitory activity against EZH2: Figure 3; for Relative selectivity index of DNMT1 vs EZH2: 1 - selected enzyme inhibition/DNMT1 inhibition
Protocol: All the compounds were first screened using an ELISA EpiQuik DNA methyltransferase (DNMT) activity/inhibitor assay kit (Epigentek). To measure the effects of the compounds on human DNMT1 activity, 200 nM purified DNMT1 was incubated with 50 µM and 100 µM of the different compounds and S-adenosylmethionine in the DNMT assay buffer in the assay plate at 37 °C for 2 h[36]. Next, every sample was incubated with the capture and detection antibody, followed by incubation with developer solution for 10 min at room temperature. The absorbance was measured at 450 nm using a POLARstar Omega microplate reader (BMG). S-Adenosylhomocysteine (AdoHcy) was used as a positive control. Methylation inhibition assays for EZH2, LSD, and G9a were performed in modified Tris, pH 9.0, buffer using AlphaLisa technology. An amount of 10 µL of the reaction system contained a corresponding concentration of SAM (Sigma) (EZH2 50 µM, LSD 50 µM, and G9a 50 µM), which was the Km value in each enzymatic reaction, plus 100 nM biotinylated peptide H3 (1–21) (synthesis by GLChina) and the relevant enzyme concentration (0.03 nM EZH2, 0.03 nM LSD, and 0.03 nM G9a). The proteins were preincubated with various compound concentrations for 15 min at room temperature before the substrate and SAM were added. After 60 min of incubation at room temperature, acceptor and donor AlphaLisa beads were added according to the manufacturer’s recommendations. The signals were read in Alpha mode with an EnSpire multimode plate reader (PerkinElmer). IC50 values were derived by fitting the data for the inhibition percentage to a dose-response curve by non-linear regression in GraphPad Prism 5.0[20].
(§1) In addition to DNMT1, there are many other methyltransferases that can bind with S-adenosyl-L-methionine (SAM) to facilitate transmethylation reactions[24]^,[25]. To investigate the selectivity of these potent compounds for DNMT1, we then evaluated the inhibitory activities against DNMT1 and other important methyltransferases at the concentration of 50 µM, including DNMT3A/3L, DNMT3B/3L, and other SAM-dependent enzymes[1]^,[2]^,[26], such as EZH2[27], LSD1[28], G9a (histone H3 lysine 9 methyltransferase)[29].
(§2) 493 Relative selectivity index
(§3) 494 Relative selectivity index of DNMT1 is calculated by formula: DNMT1-selectivity
(§4) 495 index =1 - selected enzyme inhibition/DNMT1 inhibition. The closer
(§5) 496 that this value is to 1 or even more than 1, the better DNMT1-selectivity the of the
(§6) 498 Table S1. Relative selectivity index of DNMT1
Cpd. […]

[3] = tested on: A549 (human lung cancer cells); test: MTT assay, A549; assay type: cell-based
Protocol: (§7) The human lung cancer cells (A549) and human colon cancer cells (HCT116) were cultured in an RPMI-1640 medium containing 10% FBS, 100 U/mL streptomycin, and 100 U/mL penicillin at 37 °C in a humidified atmosphere with 5% CO2. All compounds were dissolved in DMSO and stock solutions were stored at −20 °C. Reagents were freshly diluted to the marked concentrations with a culture medium before use. DMSO concentration in experimental conditions never exceeded 0.1% (v/v). All cell lines were provided by the cell laboratory, School of pharmaceutical sciences, Guangzhou Medical University.
(§8) Cell viability was detected using an MTT assay kit. Cells were seeded into 96-well plates at a density of ∼1.0 × 10^4/well. 24 h later, sextuplicate wells were treated with media and new compounds at a fixed concentration (50 µM). After 24, 48, and 72 h, the drug-containing medium was replaced by a 100 µL fresh medium with 5 mg/mL MTT solution. After 4 h of incubation, the medium with MTT was removed, and 100 µL of DMSO was added to each well. The plates were gently agitated until the purple formazan crystals were dissolved, and the OD490 was determined using a […] (Olympus BX53, Japan). The data were calculated and plotted as the percent viability compared to the control.

[4] = tested on: DNMT3A/3L; test: Methyltransferase enzymatic selectivity profiling, DNMT3A/3L; assay type: biochemical; settings: 1 - selected enzyme inhibition/DNMT1 inhibition; 50 µM
Protocol: as §1
Here, the selectivity of non-nucleoside DNMT1 inhibitors is somewhat predictable because other methyltransferases mentioned above catalyse different substrates and share very low homology with DNMT1, even in their catalytic domain[30–32]. Subsequently, the screened compounds were evaluated in a dose-dependent assay against HCT116 (human colon cancer cell line) and A549 (human lung carcinoma cell line).
as §2, §3, §4, §5, §6
Cpd. […]

[5] = tested on: HCT116 (human colon cancer cells); test: MTT assay, HCT116; assay type: cell-based
Protocol: as §7, §8

[6] = 24 h, read-out: Inh % at 50 μM, A549, 24 h
[7] = 48 h, read-out: Inh % at 50 μM, A549, 48 h
[8] = 72 h, read-out: Inh % at 50 μM, A549, 72 h
[9] = HCT-116, 24 h, read-out: Inh % at 50 μM, HCT116, 24 h
[10] = HCT-116, 48 h, read-out: Inh % at 50 μM, HCT116, 48 h
[11] = HCT-116, 72 h, read-out: Inh % at 50 μM, HCT116, 72 h

Inh% at 50 μM [1] [%]	Inh% at 100 μM [1] [%]	Relative selectivity index of DNMT1 vs DNMT 3A/3L [4]	melting point [°C]	SMILES	inhibitory activity against EZH2 [2]	Relative selectivity index of DNMT1 vs EZH2 [2]	inhibition at 50 µM [3, 6] [%]	inhibition at 50 µM [3, 7] [%]	inhibition at 50 µM [3, 8] [%]	inhibition at 50 µM [5, 9] [%]	inhibition at 50 µM [5, 10] [%]	inhibition at 50 µM [5, 11] [%]
99	100	0.06		CC(C)NCC(O)COC(Cn1c2ccccc2c2cc(F)ccc21)Cn1c2ccccc2c2cc(F)ccc21 (centres unmarked) [WK-23, 1-((1,3-bis(3-fluoro-9H-carbazol-9-yl)propan-2-yl)oxy)-3-(isopropylamino)propan-2-ol]	nearly no inhibitory activities	0.85	75.9	58.1	93.6	87.7	92.9	97.5
99	100	0.04	89 to 91	CC(C)NCC(O)COC(Cn1c2ccc(F)cc2c2cc(F)ccc21)Cn1c2ccc(F)cc2c2cc(F)ccc21 (centres unmarked) [WK-22, 1-((1,3-Bis(3,6-difluoro-9H-carbazol-9-yl)propan-2-yl)oxy)-3-(isopropylamino)propan-2-ol]	nearly no inhibitory activities	0.96	64.3	98	95.7	77.6	91.8	97.4
